Assay results published in patent US11186576B2, “Pyrazolo[1,5-A][1,3,5]triazine and pyrazolo[1,5-A]pyrimidine derivatives as CDK inhibitors” (Aurigene Discovery Technologies Limited, priority 2015, dated 2021).
Where two headings read alike, the source gives them in different places.

Assays:
[1] = tested on: RNA polymerase II CTD phosphorylation (MDA-MB-231/NCI-H358 cells); assay: Inhibition of RNA polymerase II CTD phosphorylation in cell western assay; assay type: cell-based; settings: 4 hours incubation, phospho RNA Pol II Ser-5 or Ser-2
Description: 25000 cells (MDA-MB-231/NCI-H358) were seeded in 96 well black clear bottom plate incubated for overnight before addition of selected compound. 3 fold dilutions of selected compound diluted in DMSO starting from 10 μM, added to cells and incubated for 4 hours at 37° C., 5% CO2 incubator. Cells were washed once with 100 μl of phosphate buffered saline (sigma #P3813), then fixed with 100 μl/well of 4% Para formaldehyde for 60 min at room temperature, in dark. The cells were washed 3 times with 100 μl of wash buffer (PBS with 0.1% Triton-X-100), later blocked for 2 hours at room temperature in blocking buffer (5% BSA in PBST). Cells were stained overnight at 4° C. with Phospho RNA Pol II (S5) (Millipore #04-1572, Abcam #5131) or Phospho RNA Pol II (Ser-2), antibody (Bethyl labs #A300-654-A) in blocking buffer. Post incubation cells were washed with Delifia wash buffer (Perkin Elmer #4010-0010). Cells were treated with LANCE secondary antibodies (LANCE® Eu-W1024 perkin elmer #AD-0076 for phospho Ser-5 CTD RNA pol-II and Delfia Eu-N1 anti rabbit IgG Perkin elmer #AD0106 for phospho Ser-2 CTD RNA pol-II) for 2 hours in assay buffer (Perkin Elmer #1244-111), Cells were washed 3 times with Delfia wash buffer post incubation, Enhancement solution (Perkin Elmer #1244-105) added and incubated for 20 mins. Europium readings were taken in Victor-3 instrument. Cell normalization was done using Hoechst dye (0.5 μg/ml).
Selected compounds were screened in the above mentioned assay procedure. The EC50 values are summarised in the below table; wherein group “A” refers to an EC50 value of less than or equal to 1 μM, group “B” refers to EC50 value in range of 1 to 10 μM and group “C” refers to EC50 value of greater than 10 μM.

[2] = target: CDK7/CycH/MNAT1 (Homo sapiens (Human), UniProt P50613); assay: Biochemical assay for CDK7 (TR-FRET kinase assay); settings: for inhibition at 10 µM: read-out: % inhibition @ 10 μM
Chain of CDK7/CycH/MNAT1 (P50613 whole entry): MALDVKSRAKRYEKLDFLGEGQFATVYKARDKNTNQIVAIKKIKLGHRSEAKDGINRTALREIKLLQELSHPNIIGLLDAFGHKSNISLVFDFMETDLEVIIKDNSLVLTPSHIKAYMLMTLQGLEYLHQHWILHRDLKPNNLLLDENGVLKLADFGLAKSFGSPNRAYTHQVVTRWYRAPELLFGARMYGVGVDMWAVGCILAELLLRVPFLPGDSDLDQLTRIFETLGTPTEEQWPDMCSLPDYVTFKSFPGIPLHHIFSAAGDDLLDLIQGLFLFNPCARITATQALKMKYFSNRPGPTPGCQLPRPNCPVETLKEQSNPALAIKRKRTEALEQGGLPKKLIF
Chain of CDK7/CycH/MNAT1 (P51946 whole entry partner): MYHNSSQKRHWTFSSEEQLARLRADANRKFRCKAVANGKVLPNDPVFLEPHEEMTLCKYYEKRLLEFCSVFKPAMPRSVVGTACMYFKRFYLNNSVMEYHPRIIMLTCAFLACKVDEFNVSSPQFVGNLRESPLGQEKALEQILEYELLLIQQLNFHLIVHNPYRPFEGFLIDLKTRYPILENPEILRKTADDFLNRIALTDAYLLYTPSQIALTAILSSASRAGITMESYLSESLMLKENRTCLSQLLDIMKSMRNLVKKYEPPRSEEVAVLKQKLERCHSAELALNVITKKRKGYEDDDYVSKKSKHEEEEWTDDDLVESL
Chain of CDK7/CycH/MNAT1 (P51948 whole entry partner): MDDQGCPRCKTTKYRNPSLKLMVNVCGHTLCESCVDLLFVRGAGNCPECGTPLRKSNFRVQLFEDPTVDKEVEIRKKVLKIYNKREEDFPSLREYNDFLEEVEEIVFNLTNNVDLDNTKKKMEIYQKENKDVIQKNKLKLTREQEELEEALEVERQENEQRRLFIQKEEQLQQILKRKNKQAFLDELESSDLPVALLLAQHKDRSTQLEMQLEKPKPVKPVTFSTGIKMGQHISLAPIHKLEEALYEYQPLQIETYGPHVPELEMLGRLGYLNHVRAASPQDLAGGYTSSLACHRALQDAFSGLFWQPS
Summary of the method: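 CDK7/CycH/MNAT1 (5 nM) was preincubated with compound for 60 min at room temperature, then reacted for 60 min with 100 nM ULight-MBP and 1 mM ATP in 1% DMSO. Irreversibility was probed with 20, 60 and 180 min preincubations.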

[3] = 10 μM compound, 60 min pre-incubation, 1 mM ATP
[4] = 60 min pre-incubation, 1 mM ATP, read-out: IC50

SMILES	EC50 [1] [nM]	inhibition at 10 µM [2, 3] [%]	IC50 [2, 4] [nM]	IC50 ([2]; IC50, 60 min pre-incubation, 1 mM ATP) [nM]	inhibition at 10 µM [2] [%]
CC(C)c1cnn2c(Nc3cccc(NC(=O)[C@H]4CC[C@H](NC(=O)/C=C/CN(C)C)CC4)c3)nc(OC3CCN(C)CC3)nc12 [Compound 132, (1,4-Trans)-4-((E)-4-(dimethylamino)but-2-enamido)-N-(3-((8-isopropyl-2-((1-methylpiperidin-4-yl)oxy)pyrazolo[1,5-a][1,3,5]triazin-4-yl)amino)phenyl)cyclohexane-1-carboxamide]	> 10000	90	< 300	–	–
C=CC(=O)N1CCC(C(=O)Nc2cccc(CNc3nc(OCCCCN)nc4c(C(C)C)cnn34)c2)CC1 [Compound 107, 1-acryloyl-N-(3-(((2-(4-aminobutoxy)-8-isopropylpyrazolo[1,5-a][1,3,5]triazin-4-yl)amino)methyl)phenyl)piperidine-4-carboxamide]	1000 to 10000	95	< 300	–	–
C=CC(=O)N[C@H]1CC[C@@H](C(=O)Nc2cccc(CNc3nc(OC4CCN(C)CC4)nc4c(CC)cnn34)c2)CC1 [Compound 90, (1,4-cis)-4-acrylamido-N-(3-(((8-ethyl-2-((1-methylpiperidin-4-yl)oxy)pyrazolo[1,5-a][1,3,5]triazin-4-yl)amino)methyl)phenyl)cyclohexane-1-carboxamide]	1000 to 10000	95	< 300	–	–
C=CC(=O)N[C@H]1CC[C@@H](C(=O)Nc2cccc(CNc3nc(OC4CCN(C)CC4)nc4c(C5CC5)cnn34)c2)CC1 [Compound 105, (1,4-cis)-4-acrylamido-N-(3-(((8-cyclopropyl-2-((1-methylpiperidin-4-yl)oxy)pyrazolo[1,5-a][1,3,5]triazin-4-yl)amino)methyl)phenyl)cyclohexane-1-carboxamide]	> 10000	92	< 300	–	–
CC(C)c1cnn2c(NCc3ccc(F)c(NC(=O)[C@H]4CC[C@@H](NC(=O)/C=C/CN(C)C)CC4)c3)nc(OC3CCN(C)CC3)nc12 [Compound 124, (1,4-cis)-4-((E)-4-(dimethylamino)but-2-enamido)-N-(2-fluoro-5-(((8-isopropyl-2-((1-methylpiperidin-4-yl)oxy)pyrazolo[1,5-a][1,3,5]triazin-4-yl)amino)methyl)phenyl)cyclohexane-1-carboxamide]	> 10000	94	< 300	–	–
C=CC(=O)N[C@H]1CC[C@@H](C(=O)Nc2cccc(CNc3nc(OC4CCOCC4)nc4c(C(C)C)cnn34)c2)CC1 [Compound 97, (1,4-cis)-4-acrylamido-N-(3-(((8-isopropyl-2-((tetrahydro-2H-pyran-4-yl)oxy)pyrazolo[1,5-a][1,3,5]triazin-4-yl)amino)methyl)phenyl)cyclohexane-1-carboxamide]	1000 to 10000	87	300 to 1000	–	–
C=CC(=O)Nc1ccc(C(=O)Nc2cccc(Nc3nc(OC4CCN(C)CC4)nc4c(C(C)C)cnn34)c2)cc1 [Compound 125, 4-acrylamido-N-(3-((8-isopropyl-2-((1-methylpiperidin-4-yl)oxy)pyrazolo[1,5-a][1,3,5]triazin-4-yl)amino)phenyl)benzamide]	≤ 1000	86	< 300	–	–
C=CC(=O)NC1CCCC(C(=O)Nc2cccc(CNc3nc(OC4CCN(C)CC4)nc4c(C(C)C)cnn34)c2)C1 (stereo not shown) [Compound 114, 3-acrylamido-N-(3-(((8-isopropyl-2-((1-methylpiperidin-4-yl)oxy)pyrazolo[1,5-a][1,3,5]triazin-4-yl)amino)methyl)phenyl)cyclohexane-1-carboxamide]	1000 to 10000	97	< 300	–	–
C=CC(=O)N1CCCC(NC(=O)c2cccc(Nc3nc(OC4CCN(C)CC4)nc4c(C(C)C)cnn34)c2)C1 (stereo not shown) [Compound 129, N-(1-acryloylpiperidin-3-yl)-3-((8-isopropyl-2-((1-methylpiperidin-4-yl)oxy)pyrazolo[1,5-a][1,3,5]triazin-4-yl)amino)benzamide]	1000 to 10000	94	< 300	–	–
C=CC(=O)N1CCC1C(=O)Nc1cccc(CNc2nc(OC3CCN(C)CC3)nc3c(C(C)C)cnn23)c1 (stereo not shown) [Compound 94, 1-acryloyl-N-(3-(((8-isopropyl-2-((1-methylpiperidin-4-yl)oxy)pyrazolo[1,5-a][1,3,5]triazin-4-yl)amino)methyl)phenyl)azetidine-2-carboxamide]	≤ 1000	99	< 300	–	–
C=CC(=O)N1CCC1C(=O)Nc1cccc(CNc2cc(NC3CCOCC3)nc3c(C(C)C)cnn23)c1 (stereo not shown) [Compound 139, 1-acryloyl-N-(3-(((3-isopropyl-5-((tetrahydro-2H-pyran-4-yl)amino)pyrazolo[1,5-a]pyrimidin-7-yl)amino)methyl)phenyl)azetidine-2-carboxamide]	–	98	< 300	–	–
C=C(C)C(=O)N1CCC1C(=O)Nc1cccc(CNc2nc(NC3CCOCC3)nc3c(C(C)C)cnn23)c1 (stereo not shown) [Compound 67, N-(3-(((8-isopropyl-2-((tetrahydro-2H-pyran-4-yl)amino)pyrazolo[1,5-a][1,3,5]triazin-4-yl)amino)methyl)phenyl)-1-methacryloylazetidine-2-carboxamide]	–	91	300 to 1000	–	–
C=CC(=O)N1CCCCC1C(=O)Nc1cc(CNc2nc(NC3CCOCC3)nc3c(C(C)C)cnn23)ccc1F (stereo not shown) [Compound 44, 1-acryloyl-N-(2-fluoro-5-(((8-isopropyl-2-((tetrahydro-2H-pyran-4-yl)amino)pyrazolo[1,5-a][1,3,5]triazin-4-yl)amino)methyl)phenyl)piperidine-2-carboxamide]	–	94	< 300	–	–
C=CC(=O)N(C)C1(C(=O)Nc2cccc(CNc3nc(NC4CCOCC4)nc4c(C(C)C)cnn34)c2)CC1 [Compound 84, N-(3-(((8-isopropyl-2-((tetrahydro-2H-pyran-4-yl)amino)pyrazolo[1,5-a][1,3,5]triazin-4-yl)amino)methyl)phenyl)-1-(N-methylacrylamido)cyclopropane-1-carboxamide]	–	97	< 300	–	–
CC(C)c1cnn2c(NCc3cccc(OC(=O)N4CCN(C(=O)/C=C/CN(C)C)CC4)c3)nc(NC3CCOCC3)nc12 [Compound 75, 3-(((8-isopropyl-2-((tetrahydro-2H-pyran-4-yl)amino)pyrazolo[1,5-a][1,3,5]triazin-4-yl)amino)methyl)phenyl(E)-4-(4-(dimethylamino)but-2-enoyl)piperazine-1-carboxylate]	–	–	–	< 300	97
C=CC(=O)N1CCCCC1C(=O)Nc1cccc(CNc2nc(N[C@H]3CCCOC3)nc3c(C(C)C)cnn23)c1 (stereo partly drawn) [Compound 40D, 1-acryloyl-N-(3-(((8-isopropyl-2-(((S)-tetrahydro-2H-pyran-3-yl)amino)pyrazolo[1,5-a][1,3,5]triazin-4-yl)amino)methyl)phenyl)piperidine-2-carboxamide]	–	–	300 to 1000	–	–
CC(C)c1cnn2c(NCc3cc(F)cc(NC(=O)/C=C/CN4CCOCC4)c3)nc(NC3CCOCC3)nc12 [Compound 61, (E)-N-(3-fluoro-5-(((8-isopropyl-2-((tetrahydro-2H-pyran-4-yl)amino)pyrazolo[1,5-a][1,3,5]triazin-4-yl)amino)methyl)phenyl)-4-morpholinobut-2-enamide]	–	76	> 1000	–	–
C=CC(=O)NC1CCC(C(=O)Nc2cccc(Nc3nc(OC4CCN(C)CC4)nc4c(C(C)C)cnn34)c2)CC1 (stereo not drawn) [Compound 126, (1,4-cis)-4-acrylamido-N-(3-((8-isopropyl-2-((1-methylpiperidin-4-yl)oxy)pyrazolo[1,5-a][1,3,5]triazin-4-yl)amino)phenyl)cyclohexane-1-carboxamide]	–	80	–	–	–
C=CC(=O)N1CCC1C(=O)Nc1cccc(CNc2nc(NC3CCOCC3)nc3c(C(C)C)cnn23)c1F (stereo not shown) [Compound 30, 1-acryloyl-N-(2-fluoro-3-(((8-isopropyl-2-((tetrahydro-2H-pyran-4-yl)amino)pyrazolo[1,5-a][1,3,5]triazin-4-yl)amino)methyl)phenyl)azetidine-2-carboxamide]	–	98	< 300	–	–
